Assay [1] has as its target T1, Mitogen-activated protein kinase kinase kinase 2 (Homo sapiens) (UniProt Q9Y2U5).
T1 sequence (whole entry): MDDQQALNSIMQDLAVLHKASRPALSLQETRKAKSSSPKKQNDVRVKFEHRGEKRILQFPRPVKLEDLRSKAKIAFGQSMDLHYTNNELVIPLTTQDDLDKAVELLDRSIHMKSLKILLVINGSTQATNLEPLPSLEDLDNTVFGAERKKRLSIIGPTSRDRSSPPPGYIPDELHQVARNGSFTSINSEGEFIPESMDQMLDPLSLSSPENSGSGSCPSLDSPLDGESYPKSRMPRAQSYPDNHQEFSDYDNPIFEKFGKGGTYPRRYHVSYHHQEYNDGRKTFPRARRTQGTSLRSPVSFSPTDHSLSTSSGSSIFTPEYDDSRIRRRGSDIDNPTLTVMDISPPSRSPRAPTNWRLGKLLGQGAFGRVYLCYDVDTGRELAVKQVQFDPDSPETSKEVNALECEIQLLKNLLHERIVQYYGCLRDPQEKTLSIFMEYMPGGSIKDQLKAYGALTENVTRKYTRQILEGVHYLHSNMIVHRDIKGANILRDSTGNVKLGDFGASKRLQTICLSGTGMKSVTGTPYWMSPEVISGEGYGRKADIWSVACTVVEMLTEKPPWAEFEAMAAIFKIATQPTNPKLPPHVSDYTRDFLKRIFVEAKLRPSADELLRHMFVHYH
As to the kind of experiment: Selectivity interaction (LanthaScreen Eu Kinase Binding Assay) EUB0001632a MAP3K2. Particulars: at 10 µM. For orientation: TR-FRET usually uses a lanthanide donor and a delayed reading to cut background.

The target in assay [2] is BDNF/NT-3 growth factors receptor (Homo sapiens) (UniProt Q16620). Kind of assay: Selectivity interaction (Kinase panel (Z-LYTE Assay)) EUB0001632a NTRK2. To be noted: at 10 µM.
The target in assay [3] is Casein kinase I isoform gamma-1 (Homo sapiens) (UniProt Q9HCP0). Kind of assay: Selectivity interaction (KinomeScan (DiscoverX)) EUB0000607a CSNK1G1. Particulars: at 10 µM.
Assay [4] deals with Ribosomal protein S6 kinase alpha-4 (Homo sapiens) (UniProt O75676). Kind of assay: Selectivity interaction (ActivX KiNativ screen (kinase selectivity in THP-1 cell lysates)) EUB0000639a RPS6KA4. In kind it is subcellular. To be noted: lysate.
Assay [5] has as its target T2, Discoidin domain-containing receptor 2 (Homo sapiens) (UniProt Q16832).
T2 sequence (whole entry): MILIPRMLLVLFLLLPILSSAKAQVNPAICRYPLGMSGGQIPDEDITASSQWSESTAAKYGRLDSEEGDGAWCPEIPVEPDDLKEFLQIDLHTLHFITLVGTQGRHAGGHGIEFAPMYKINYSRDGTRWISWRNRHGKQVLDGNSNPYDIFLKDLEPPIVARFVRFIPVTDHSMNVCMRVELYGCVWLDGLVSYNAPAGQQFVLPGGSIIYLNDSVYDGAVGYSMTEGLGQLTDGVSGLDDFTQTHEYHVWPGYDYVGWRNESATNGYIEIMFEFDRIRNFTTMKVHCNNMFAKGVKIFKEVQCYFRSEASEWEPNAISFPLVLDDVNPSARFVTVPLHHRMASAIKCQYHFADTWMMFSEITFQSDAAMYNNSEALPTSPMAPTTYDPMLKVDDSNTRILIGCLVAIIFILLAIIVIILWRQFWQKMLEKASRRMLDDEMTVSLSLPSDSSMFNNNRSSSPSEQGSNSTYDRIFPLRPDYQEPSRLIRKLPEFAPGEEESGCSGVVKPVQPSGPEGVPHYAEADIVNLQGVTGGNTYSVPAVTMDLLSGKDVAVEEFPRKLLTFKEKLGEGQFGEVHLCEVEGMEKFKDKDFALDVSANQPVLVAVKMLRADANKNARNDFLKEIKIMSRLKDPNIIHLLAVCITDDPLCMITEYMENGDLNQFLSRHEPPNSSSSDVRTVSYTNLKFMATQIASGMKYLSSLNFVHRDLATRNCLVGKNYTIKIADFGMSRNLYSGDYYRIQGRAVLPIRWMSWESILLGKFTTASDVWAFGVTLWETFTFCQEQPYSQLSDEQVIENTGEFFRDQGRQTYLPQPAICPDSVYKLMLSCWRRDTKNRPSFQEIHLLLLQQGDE
As to the kind of experiment: (§1) Selectivity interaction (ProQinase) EUB0000171b DDR2.

The subject of assay [6] is T3, Discoidin domain-containing receptor 2 (Homo sapiens), Q16832 [T654M].
T3 sequence (whole entry): T2 sequence (whole entry) with T654M
The description is as §1.

This note sets out measurements from ChEMBL document CHEMBL5465560, “Selectivity Literature for EUbOPEN Chemogenomic Library” (2024).

Numbering of substitutions follows the chain as printed.

Ribosomal protein S6 kinase alpha-4 (Homo sapiens), sequence (O75676 whole entry, looked up, the tested form may be a part): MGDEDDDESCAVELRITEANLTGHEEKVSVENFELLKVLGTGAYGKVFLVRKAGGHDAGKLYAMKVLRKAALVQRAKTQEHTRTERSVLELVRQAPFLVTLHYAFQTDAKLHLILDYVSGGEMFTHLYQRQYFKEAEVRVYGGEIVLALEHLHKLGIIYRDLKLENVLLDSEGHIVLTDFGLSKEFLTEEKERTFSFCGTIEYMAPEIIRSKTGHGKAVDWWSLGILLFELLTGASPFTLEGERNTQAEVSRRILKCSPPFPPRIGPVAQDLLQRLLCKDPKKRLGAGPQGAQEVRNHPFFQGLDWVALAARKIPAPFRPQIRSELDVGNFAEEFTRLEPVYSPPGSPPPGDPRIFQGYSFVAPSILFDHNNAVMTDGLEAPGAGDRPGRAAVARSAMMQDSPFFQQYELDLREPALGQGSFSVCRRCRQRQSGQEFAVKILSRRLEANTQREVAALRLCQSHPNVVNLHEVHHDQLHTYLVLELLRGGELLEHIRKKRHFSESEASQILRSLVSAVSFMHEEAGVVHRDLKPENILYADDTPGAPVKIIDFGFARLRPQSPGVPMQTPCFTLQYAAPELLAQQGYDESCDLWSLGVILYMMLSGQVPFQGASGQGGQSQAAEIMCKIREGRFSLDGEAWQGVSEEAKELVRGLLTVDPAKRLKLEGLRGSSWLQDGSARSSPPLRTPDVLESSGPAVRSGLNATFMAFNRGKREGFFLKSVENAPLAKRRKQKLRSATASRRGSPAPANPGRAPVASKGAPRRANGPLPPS
Casein kinase I isoform gamma-1 (Homo sapiens), sequence (Q9HCP0 whole entry, looked up, canonical isoform): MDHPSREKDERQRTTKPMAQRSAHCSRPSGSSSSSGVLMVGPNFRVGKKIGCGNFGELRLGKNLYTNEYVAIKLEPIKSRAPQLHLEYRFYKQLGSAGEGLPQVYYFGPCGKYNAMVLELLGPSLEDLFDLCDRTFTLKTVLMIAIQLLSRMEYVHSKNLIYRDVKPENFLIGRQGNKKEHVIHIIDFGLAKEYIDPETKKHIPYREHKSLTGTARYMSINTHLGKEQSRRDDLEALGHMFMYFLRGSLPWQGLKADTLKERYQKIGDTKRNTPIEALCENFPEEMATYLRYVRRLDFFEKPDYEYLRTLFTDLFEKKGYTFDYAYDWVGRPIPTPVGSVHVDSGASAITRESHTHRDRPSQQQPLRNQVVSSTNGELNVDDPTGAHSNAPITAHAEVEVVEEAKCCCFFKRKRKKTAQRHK
BDNF/NT-3 growth factors receptor (Homo sapiens), sequence (Q16620 32-822 limits assumed): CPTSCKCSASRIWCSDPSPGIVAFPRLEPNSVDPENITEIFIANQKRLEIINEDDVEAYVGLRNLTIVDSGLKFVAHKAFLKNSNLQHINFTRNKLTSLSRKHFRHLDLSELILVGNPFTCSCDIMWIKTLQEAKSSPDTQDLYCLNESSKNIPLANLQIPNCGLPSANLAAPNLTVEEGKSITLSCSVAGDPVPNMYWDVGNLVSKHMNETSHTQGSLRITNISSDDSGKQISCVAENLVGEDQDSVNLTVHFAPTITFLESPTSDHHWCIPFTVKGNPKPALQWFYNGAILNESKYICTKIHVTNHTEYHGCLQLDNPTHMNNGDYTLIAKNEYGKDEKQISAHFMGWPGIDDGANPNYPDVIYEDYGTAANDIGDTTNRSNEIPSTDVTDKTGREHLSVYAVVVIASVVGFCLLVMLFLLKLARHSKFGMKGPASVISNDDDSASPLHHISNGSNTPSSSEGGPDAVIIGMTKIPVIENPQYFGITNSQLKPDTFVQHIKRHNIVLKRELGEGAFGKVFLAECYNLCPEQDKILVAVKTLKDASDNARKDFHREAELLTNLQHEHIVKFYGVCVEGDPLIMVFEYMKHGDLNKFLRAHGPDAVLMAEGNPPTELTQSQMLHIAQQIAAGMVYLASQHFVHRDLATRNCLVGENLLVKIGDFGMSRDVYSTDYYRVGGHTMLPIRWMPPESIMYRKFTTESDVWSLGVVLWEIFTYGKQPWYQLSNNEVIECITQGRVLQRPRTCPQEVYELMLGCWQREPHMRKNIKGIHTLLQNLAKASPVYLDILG

Regarding `Cn1cc(-n2cnc3c(NCc4nc5cc(Cl)c(Cl)cc5[nH]4)nc(N4CCOCC4)nc32)cn1`, in assay [1], the % of inhibition was -3.79%. Moreover, the % of control in assay [2] was determined as 4.86%.

Take `CNC(=O)Nc1ccc(-c2nc(N3CC4CCC(C3)O4)c3cnn(C4CCC5(CC4)OCCO5)c3n2)cc1`: in assay [3], the % of control was 54%.

With `CC[C@@H]1[C@H](F)C(=O)N[C@@H]1COc1nccc2cc(C(N)=O)c(OC)cc12` [ZIMLOVISERTIB], the % of inhibition was -4.6% in assay [4] (at 0.01 µM); -2.6% in assay [4] (at 0.04 µM); -18.1% in assay [4] (at 0.2 µM); -20.7% in assay [4] (at 1 µM); -27.3% in assay [4] (at 5 µM).

Turning to `C=CC(=O)Nc1cccc(C(=O)Nc2ccc(Nc3cc(-c4[nH]c(SC)nc4C)ccn3)cc2)c1`, the % of control is 90% in assay [5] (at 1 µM), 76% in assay [5] (at 5 µM), 89% in assay [6] (at 1 µM) and 70% in assay [6] (at 5 µM).
